Laboratory results as given in ChEMBL document CHEMBL1142596, “Diterpenes from Leucas aspera inhibiting prostaglandin-induced contractions” (J Nat Prod, 2006).
The source made the active and inactive calls. No cut-off for these calls is given here.

Key:
Ileum [1] = assay: Inhibition of prostaglandin E1-induced contraction in Hartley guinea pig ileum at 16 umol by modified Magnus assay; format: functional, tissue-based; conditions: Cavia porcellus
Ileum [2] = assay: Inhibition of prostaglandin E2-induced contraction in Hartley guinea pig ileum at 48 umol by modified Magnus assay; format: functional, tissue-based; conditions: Cavia porcellus
[3] = system: Radical scavenging activity; assay: Antioxidant activity assessed as DPPH-radical scavenging activity; format: functional
Ileum [4] = assay: Inhibition of prostaglandin E1-induced contraction in Hartley guinea pig ileum at 39 umol by modified Magnus assay; format: functional, tissue-based; conditions: Cavia porcellus
Ileum [5] = assay: Inhibition of prostaglandin E2-induced contraction in Hartley guinea pig ileum at 64 umol by modified Magnus assay; format: functional, tissue-based; conditions: Cavia porcellus
Ileum [6] = assay: Inhibition of prostaglandin E2-induced contraction in Hartley guinea pig ileum at 76 umol by modified Magnus assay; format: functional, tissue-based; conditions: Cavia porcellus
Ileum [7] = assay: Inhibition of prostaglandin E1-induced contraction in Hartley guinea pig ileum at 126 umol by modified Magnus assay; format: functional, tissue-based; conditions: Cavia porcellus

SMILES: C=C[C@]1(C)C=C2C(=O)C[C@H]3C(C)(C)[C@@H](O[C@@H]4O[C@H](CO)[C@@H](O)[C@H](O)[C@H]4O[C@@H]4O[C@H](CO)[C@@H](O)[C@H](O)[C@H]4O)CC[C@]3(C)[C@H]2CC1
- Activity (Ileum [1]): Active
- Activity (Ileum [2]): Active
- Activity [3]: inactive

SMILES: C=C[C@]1(C)C=C2C(=O)C[C@H]3C(C)(C)[C@@H](O[C@@H]4O[C@H](CO[C@@H]5O[C@H](CO)[C@@H](O)[C@H](O)[C@H]5O)[C@@H](O)[C@H](O)[C@H]4O[C@@H]4O[C@@H](C)[C@H](O)[C@@H](O)[C@H]4O)CC[C@]3(C)[C@H]2CC1
- Activity (Ileum [4]): Active
- Activity [3]: inactive
- Activity (Ileum [5]): Active

SMILES: C=C[C@]1(C)C=C2C(=O)C[C@H]3C(C)(C)[C@@H](O[C@@H]4O[C@H](CO)[C@@H](O)[C@H](O)[C@H]4O[C@@H]4O[C@H](CO[C@@H]5O[C@H](CO)[C@@H](O)[C@H](O)[C@H]5O)[C@@H](O)[C@H](O)[C@H]4O)CC[C@]3(C)[C@H]2CC1
- Activity [3]: inactive
- Activity (Ileum [6]): Active
- Activity (Ileum [7]): Active

SMILES: CC1(C)CC[C@]2(C(=O)O)CC[C@]3(C)C(=CC[C@@H]4[C@@]5(C)C[C@@H](O)[C@H](O)C(C)(C)[C@@H]5CC[C@]43C)[C@@H]2C1
- Activity (Ileum [4]): Active
- Activity [3]: inactive
- Activity (Ileum [5]): Active

SMILES: C=CC(C)(O)CC(O)[C@]1(C)C2=C([C@H](OC(C)=O)C[C@@H]1C)[C@@](C)(COC(C)=O)C(=O)CC2 (stereo partly drawn)
- Activity [3]: inactive

SMILES: C=CC(C)(O)CC(OC(C)=O)[C@]1(C)C2=C([C@H](OC(C)=O)C[C@@H]1C)[C@@](C)(COC(C)=O)C(=O)CC2 (stereo partly drawn)
- Activity [3]: inactive
- Activity (Ileum [6]): Active
- Activity (Ileum [7]): Active

SMILES: O=C(N[C@H](COC(=O)[C@H](Cc1ccccc1)NC(=O)c1ccccc1)Cc1ccccc1)c1ccccc1
- Activity [3]: inactive

SMILES: C[C@@H]1CC(=O)[C@H]2C(C)(C)[C@@H](O)CC[C@]2(C)[C@@]12CC[C@@]1(CCOC1O)O2 (mixture of isomers)
- Activity [3]: inactive
